Source: patent US8999970B2, “Administration of an anti-obesity compound to individuals with renal impairment” (Arena Pharmaceuticals, Inc., priority 2010, dated 2015)
Values joined by “and” are separate entries in the source; they are usually repeats but may differ in a detail not shown here. Equal entries are not always repeated.

Experiment: Clinical trial APD356-016: plasma and urine pharmacokinetics of lorcaserin, M1 and M5 after a 10 mg dose in subjects with renal impairment
Conditions: Severe Renal Impairment Not Receiving Dialysis; for Plasma Concentration of HSO3-APD356 Metabolite, Max: group Max; for Plasma Concentration of HSO3-APD356 Metabolite, Max / Plasma Concentration of HSO3-APD356 Metabolite, Mean / Plasma Concentration of HSO3-APD356 Metabolite, Median / Plasma Concentration of HSO3-APD356 Metabolite, Min: N 8; for Plasma Concentration of HSO3-APD356 Metabolite, Mean: group Mean; for Plasma Concentration of HSO3-APD356 Metabolite, Median: group Median; for Plasma Concentration of HSO3-APD356 Metabolite, Min: group Min; for Plasma Concentration of HSO3-APD356 Metabolite: individual subject
Protocol: The interaction of renal insufficiency with the pharmacokinetics, tolerability and safety of lorcaserin were evaluated in a formal PK study in subjects with renal impairment and in the populations studied in phase 2 and phase 3 clinical studies.
The pharmacokinetic properties of lorcaserin in subjects with varying degrees of renal impairment were evaluated in clinical trial APD356-016. At the time of study conduct and analysis, subjects were assigned to renal impairment groups based on creatinine clearance calculated using IDEAL body weight (Table 1). This calculation was used to avoid overestimation of creatinine clearance due to the excess body weight (overweight and obese subjects were enrolled in the trial). Summaries of pharmacokinetic properties by group assignment using creatinine clearance calculated using ACTUAL body weights are also provided in the sections that follow.
The FDA expects a reasonable margin between anticipated exposures and exposures that may produce toxicity. A reasonable margin can vary depending on the expected toxicity, but generally is an order of magnitude (10 times), but can sometimes be less for mild toxicity.
Table 13. Summary of Plasma Concentrations (ng/mL) of HSO3-APD356 Metabolite over Time by Group: Severe Renal Impairment Not Receiving Dialysis (see Table 13 next page)
Subject number 3140-505 was on dialysis and grouped in the end stage renal disease group.

C[C@H]1CN(S(=O)(=O)O)CCc2ccc(Cl)cc21 [HSO3-APD356 Metabolite]
Plasma Concentration of HSO3-APD356 Metabolite, Max (Day 1 0.5 h): 182 ng/mL
Plasma Concentration of HSO3-APD356 Metabolite, Max (Day 1 1 h): 319 ng/mL
Plasma Concentration of HSO3-APD356 Metabolite, Max (Day 1 2 h): 489 ng/mL
Plasma Concentration of HSO3-APD356 Metabolite, Max (Day 1 3 h): 468 ng/mL
Plasma Concentration of HSO3-APD356 Metabolite, Max (Day 1 4 h): 542 ng/mL
Plasma Concentration of HSO3-APD356 Metabolite, Max (Day 1 6 h): 445 ng/mL
Plasma Concentration of HSO3-APD356 Metabolite, Max (Day 1 8 h): 473 ng/mL
Plasma Concentration of HSO3-APD356 Metabolite, Max (Day 1 12 h): 439 ng/mL
Plasma Concentration of HSO3-APD356 Metabolite, Max (Day 1 16 h): 410 ng/mL
Plasma Concentration of HSO3-APD356 Metabolite, Max (Day 1 Predose): 9.00 ng/mL
Plasma Concentration of HSO3-APD356 Metabolite, Max (Day 2 24 h): 406 ng/mL
Plasma Concentration of HSO3-APD356 Metabolite, Max (Day 2 36 h): 336 ng/mL
Plasma Concentration of HSO3-APD356 Metabolite, Max (Day 3 48 h): 292 ng/mL
Plasma Concentration of HSO3-APD356 Metabolite, Max (Day 4 72 h): 248 ng/mL
Plasma Concentration of HSO3-APD356 Metabolite, Max (Day 5 96 h): 225 ng/mL
Plasma Concentration of HSO3-APD356 Metabolite, Max (Day 6 120 h): 212 ng/mL
Plasma Concentration of HSO3-APD356 Metabolite, Mean (Day 1 0.5 h): 25.7 ng/mL
Plasma Concentration of HSO3-APD356 Metabolite, Mean (Day 1 1 h): 50.6 ng/mL
Plasma Concentration of HSO3-APD356 Metabolite, Mean (Day 1 2 h): 83.2 ng/mL
Plasma Concentration of HSO3-APD356 Metabolite, Mean (Day 1 3 h): 86.8 ng/mL
Plasma Concentration of HSO3-APD356 Metabolite, Mean (Day 1 4 h): 99.5 ng/mL
Plasma Concentration of HSO3-APD356 Metabolite, Mean (Day 1 6 h): 86.7 ng/mL
Plasma Concentration of HSO3-APD356 Metabolite, Mean (Day 1 8 h): 88.9 ng/mL
Plasma Concentration of HSO3-APD356 Metabolite, Mean (Day 1 12 h): 84.3 ng/mL
Plasma Concentration of HSO3-APD356 Metabolite, Mean (Day 1 16 h): 76.8 ng/mL
Plasma Concentration of HSO3-APD356 Metabolite, Mean (Day 1 Predose): 1.13 ng/mL
Plasma Concentration of HSO3-APD356 Metabolite, Mean (Day 2 24 h): 84.4 ng/mL
Plasma Concentration of HSO3-APD356 Metabolite, Mean (Day 2 36 h): 73.9 ng/mL
Plasma Concentration of HSO3-APD356 Metabolite, Mean (Day 3 48 h): 68.1 ng/mL
Plasma Concentration of HSO3-APD356 Metabolite, Mean (Day 4 72 h): 58.3 ng/mL
Plasma Concentration of HSO3-APD356 Metabolite, Mean (Day 5 96 h): 53.8 ng/mL
Plasma Concentration of HSO3-APD356 Metabolite, Mean (Day 6 120 h): 49.2 ng/mL
Plasma Concentration of HSO3-APD356 Metabolite, Median (Day 1 0.5 h): 1.33 ng/mL
Plasma Concentration of HSO3-APD356 Metabolite, Median (Day 1 1 h): 12.6 ng/mL
Plasma Concentration of HSO3-APD356 Metabolite, Median (Day 1 2 h): 24.5 ng/mL
Plasma Concentration of HSO3-APD356 Metabolite, Median (Day 1 3 h): 27.5 ng/mL
Plasma Concentration of HSO3-APD356 Metabolite, Median (Day 1 4 h): 31.6 ng/mL
Plasma Concentration of HSO3-APD356 Metabolite, Median (Day 1 6 h): 32.8 ng/mL
Plasma Concentration of HSO3-APD356 Metabolite, Median (Day 1 8 h): 29.5 ng/mL
Plasma Concentration of HSO3-APD356 Metabolite, Median (Day 1 12 h): 28.9 ng/mL
Plasma Concentration of HSO3-APD356 Metabolite, Median (Day 1 16 h): 28.1 ng/mL
Plasma Concentration of HSO3-APD356 Metabolite, Median (Day 1 Predose): 0.00 ng/mL
Plasma Concentration of HSO3-APD356 Metabolite, Median (Day 2 24 h): 32.5 ng/mL
Plasma Concentration of HSO3-APD356 Metabolite, Median (Day 2 36 h): 35.5 ng/mL
Plasma Concentration of HSO3-APD356 Metabolite, Median (Day 3 48 h): 33.8 ng/mL
Plasma Concentration of HSO3-APD356 Metabolite, Median (Day 4 72 h): 31.6 ng/mL
Plasma Concentration of HSO3-APD356 Metabolite, Median (Day 5 96 h): 31.3 ng/mL
Plasma Concentration of HSO3-APD356 Metabolite, Median (Day 6 120 h): 27.5 ng/mL
Plasma Concentration of HSO3-APD356 Metabolite, Min (Day 1 0.5 h): 0.00 ng/mL
Plasma Concentration of HSO3-APD356 Metabolite, Min (Day 1 1 h): 0.00 ng/mL
Plasma Concentration of HSO3-APD356 Metabolite, Min (Day 1 2 h): 6.08 ng/mL
Plasma Concentration of HSO3-APD356 Metabolite, Min (Day 1 3 h): 17.6 ng/mL
Plasma Concentration of HSO3-APD356 Metabolite, Min (Day 1 4 h): 25.4 ng/mL
Plasma Concentration of HSO3-APD356 Metabolite, Min (Day 1 6 h): 26.1 ng/mL
Plasma Concentration of HSO3-APD356 Metabolite, Min (Day 1 8 h): 25.8 ng/mL
Plasma Concentration of HSO3-APD356 Metabolite, Min (Day 1 12 h): 25.4 ng/mL
Plasma Concentration of HSO3-APD356 Metabolite, Min (Day 1 16 h): 18.0 ng/mL
Plasma Concentration of HSO3-APD356 Metabolite, Min (Day 1 Predose): 0.00 ng/mL
Plasma Concentration of HSO3-APD356 Metabolite, Min (Day 2 24 h): 27.1 ng/mL
Plasma Concentration of HSO3-APD356 Metabolite, Min (Day 2 36 h): 27.8 ng/mL
Plasma Concentration of HSO3-APD356 Metabolite, Min (Day 3 48 h): 25.8 ng/mL
Plasma Concentration of HSO3-APD356 Metabolite, Min (Day 4 72 h): 19.7 ng/mL
Plasma Concentration of HSO3-APD356 Metabolite, Min (Day 5 96 h): 15.1 ng/mL
Plasma Concentration of HSO3-APD356 Metabolite, Min (Day 6 120 h): 12.3 ng/mL
Plasma Concentration of HSO3-APD356 Metabolite (Day 1 0.5 h): 182 ng/mL and 2.66 ng/mL and 8.54 ng/mL and 0.00 ng/mL (2×) and 12.2 ng/mL
Plasma Concentration of HSO3-APD356 Metabolite (Day 1 1 h): 319 ng/mL and 22.8 ng/mL and 18.0 ng/mL and 0.00 ng/mL and 31.4 ng/mL and 4.30 ng/mL
Plasma Concentration of HSO3-APD356 Metabolite (Day 1 2 h): 489 ng/mL and 42.2 ng/mL and 25.1 ng/mL and 6.08 ng/mL and 53.2 ng/mL and 13.3 ng/mL
Plasma Concentration of HSO3-APD356 Metabolite (Day 1 3 h): 468 ng/mL and 52.4 ng/mL and 26.5 ng/mL and 17.6 ng/mL and 55.6 ng/mL and 20.9 ng/mL
Plasma Concentration of HSO3-APD356 Metabolite (Day 1 4 h): 542 ng/mL and 53.3 ng/mL and 28.2 ng/mL and 28.6 ng/mL and 55.1 ng/mL and 25.4 ng/mL
Plasma Concentration of HSO3-APD356 Metabolite (Day 1 6 h): 445 ng/mL and 51.9 ng/mL and 32.2 ng/mL and 29.8 ng/mL and 46.5 ng/mL and 26.1 ng/mL
Plasma Concentration of HSO3-APD356 Metabolite (Day 1 8 h): 473 ng/mL and 49.7 ng/mL and 27.8 ng/mL and 29.2 ng/mL and 50.4 ng/mL and 25.8 ng/mL
Plasma Concentration of HSO3-APD356 Metabolite (Day 1 12 h): 439 ng/mL and 45.9 ng/mL and 27.2 ng/mL and 27.3 ng/mL and 52.2 ng/mL and 25.4 ng/mL
Plasma Concentration of HSO3-APD356 Metabolite (Day 1 16 h): 410 ng/mL and 46.9 ng/mL and 28.1 ng/mL and 27.5 ng/mL and 18.0 ng/mL and 28.0 ng/mL and 30.6 ng/mL
Plasma Concentration of HSO3-APD356 Metabolite (Day 1 Predose): 0.00 ng/mL (6×) and 9.00 ng/mL
Plasma Concentration of HSO3-APD356 Metabolite (Day 2 24 h): 406 ng/mL and 51.1 ng/mL and 33.0 ng/mL and 31.9 ng/mL and 62.4 ng/mL and 31.6 ng/mL and 32.0 ng/mL
Plasma Concentration of HSO3-APD356 Metabolite (Day 2 36 h): 336 ng/mL and 45.5 ng/mL and 40.4 ng/mL and 30.6 ng/mL (2×) and 52.2 ng/mL and 28.4 ng/mL
Plasma Concentration of HSO3-APD356 Metabolite (Day 3 48 h): 292 ng/mL and 47.2 ng/mL and 34.3 ng/mL and 31.0 ng/mL and 54.2 ng/mL and 33.3 ng/mL
Plasma Concentration of HSO3-APD356 Metabolite (Day 4 72 h): 248 ng/mL and 40.2 ng/mL and 33.0 ng/mL and 27.9 ng/mL and 46.2 ng/mL and 30.2 ng/mL
Plasma Concentration of HSO3-APD356 Metabolite (Day 5 96 h): 225 ng/mL and 36.0 ng/mL and 30.2 ng/mL and 28.5 ng/mL and 43.8 ng/mL and 32.3 ng/mL
Plasma Concentration of HSO3-APD356 Metabolite (Day 6 120 h): 212 ng/mL and 30.4 ng/mL and 26.3 ng/mL and 25.2 ng/mL and 40.1 ng/mL and 28.6 ng/mL
